The values below come from patent US6686484B2, “Polycyclic aryl and heteroaryl substituted 1,4-quinones useful for selective inhibition of the coagulation cascade” (Pharmacia Corporation, priority 2000, dated 2004).

Format in all cases: biochemical
For test [1], the target named is T1, trypsin, type IX from porcine pancreas (Sus scrofa, UniProt P00761).
T1 construct: purchased Sigma, St. Louis Mo; host or cells: porcine pancreas
As to the kind of experiment: Trypsin Assay. The conditions noted are these: substrate L-BAPNA, 60 min room temperature, OD 405 nm; read-out: Trpysin II IC50. The protocol: 5 ug/ml trypsin, type IX from porcine pancreas and 0.375 mM N-α-Benzoyl-L-arginine-p-nitroanilide (L-BAPNA) are added to a 96-well assay plate containing either inhibitor or buffer (50 mM Tris-HCl, pH 8.0, 100 mM NaCl, 0.1% BSA). The reactions, in a final volume of 100 ul are measured immediately at 405 nm to determine background absorbance. The plate is incubated at room temperature for 60 min, at which time the rate of hydrolysis of the substrate is measured by monitoring the reaction at 405 nm for the release of p-nitroaniline. Percent inhibition of trypsin activity is calculated from OD405nm value from the experimental and control sample.
Recombinant soluble TF, consisting of amino acids 1-219 of the mature protein sequence was expressed in E. coli and purified using a Mono Q Sepharose FPLC. Recombinant human VIIa was purchased from American Diagnostica, Greenwich Conn. and chromogenic substrate N-Methylsulfonyl-D-phe-gly-arg-p-nitroaniline was prepared by American Peptide Company, Inc., Sunnyvale, Calif. Factor Xa was obtained from Enzyme Research Laboratories, South Bend Ind., thrombin from Calbiochem, La Jolla, Calif., and trypsin and L-BAPNA from Sigma, St. Louis Mo. The chromogenic substrates S-2765 and S-2238 were purchased from Chromogenix, Sweden.

A further test deals with human thrombin (Homo sapiens, UniProt P00734). As to the kind of experiment: Thrombin Assay. The conditions noted are these: substrate H-D-Phenylalanyl-L-pipecolyl-L-arginine-p-nitroaniline, 60 min room temperature, OD 405 nm; read-out: Thrombin II IC50.
Test [2] deals with T2, recombinant soluble tissue factor and recombinant human factor VIIa (TF-VIIA) (Homo sapiens, UniProt P08709).
T2 construct: conversion of coagulation factor VII to VIIa by Xa; purchased American Diagnostica, Greenwich Conn; (VIIa); soluble TF made in house in E. coli; host or cells: E. coli (soluble TF)
T2 sequence (P08709 213-466 limits assumed): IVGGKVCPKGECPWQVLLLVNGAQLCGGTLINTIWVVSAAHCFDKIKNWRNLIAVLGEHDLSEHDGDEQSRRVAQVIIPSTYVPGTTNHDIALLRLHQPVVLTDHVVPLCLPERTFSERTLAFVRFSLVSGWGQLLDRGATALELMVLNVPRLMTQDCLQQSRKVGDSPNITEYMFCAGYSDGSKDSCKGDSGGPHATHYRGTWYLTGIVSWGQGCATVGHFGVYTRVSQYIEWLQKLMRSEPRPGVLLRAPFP
T2 sequence (P08709 61-212 limits assumed): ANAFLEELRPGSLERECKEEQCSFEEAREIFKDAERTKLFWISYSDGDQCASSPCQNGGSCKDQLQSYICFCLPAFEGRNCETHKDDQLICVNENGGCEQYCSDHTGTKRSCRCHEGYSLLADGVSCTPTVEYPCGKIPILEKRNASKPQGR
T2 sequence (P13726 33-251 partner limits assumed): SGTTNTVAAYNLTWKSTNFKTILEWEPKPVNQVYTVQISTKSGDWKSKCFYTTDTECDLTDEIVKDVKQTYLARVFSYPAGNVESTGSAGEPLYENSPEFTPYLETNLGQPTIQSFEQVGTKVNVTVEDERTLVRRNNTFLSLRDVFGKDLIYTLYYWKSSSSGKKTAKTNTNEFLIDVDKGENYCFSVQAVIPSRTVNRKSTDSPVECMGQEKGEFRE
As to the kind of experiment: TF-VIIa Assay. The conditions noted are these: chromogenic substrate N-Methylsulfonyl-D-phe-gly-arg-p-nitroaniline, 60 min room temperature, OD 405 nm.
Experimental: In this assay 100 nM recombinant soluble tissue factor and 2 nM recombinant human factor VIIa are added to a 96 well assay plate containing 0.4 mM of the substrate, N-Methylsulfonyl-D-phe-gly-arg-p-nitroaniline and either inhibitor or buffer (5 mM CaCl2, 50 mM Tris-HCl, pH 8.0, 100 mM NaCl, 0.1% BSA). The reaction, in a final volume of 100 ul is measured immediately at 405 nm to determine background absorbance. The plate is incubated at room temperature for 60 min, at which time the rate of hydrolysis of the substrate is measured by monitoring the reaction at 405 nm for the release of p-nitroaniline. Percent inhibition of TF-VIIa activity is calculated from OD405nm value from the experimental and control sample.

SMILES strings stand for the structures.

T1 sequence (P00761 9-231): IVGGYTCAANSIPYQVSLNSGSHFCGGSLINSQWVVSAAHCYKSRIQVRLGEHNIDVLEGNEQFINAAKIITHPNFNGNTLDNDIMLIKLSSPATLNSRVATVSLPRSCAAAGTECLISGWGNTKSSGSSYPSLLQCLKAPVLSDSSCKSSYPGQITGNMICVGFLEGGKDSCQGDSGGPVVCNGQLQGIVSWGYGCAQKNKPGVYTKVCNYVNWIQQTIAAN
Experimental for human thrombin: 0.28 nM human thrombin and 0.06 mM H-D-Phenylalanyl-L-pipecolyl-L-arginine-p-nitroaniline dihydrochloride are added to a 96-well assay plate containing either inhibitor or buffer (50 mM Tris-HCl, pH 8.0, 100 mM NaCl, 0.1% BSA). The reaction, in a final volume of 100 ul is measured immediately at 405 nm to determine background absorbance. The plate is incubated at room temperature for 60 min, at which time the rate of hydrolysis of the substrate is measured by monitoring the reaction at 405 nm for the release of p-nitroaniline. Percent inhibition of thrombin activity is calculated from OD405nm value from the experimental and control sample.

By IC50 is commonly meant the concentration that inhibits the measured activity by half. With `CC(C)NC1=CC(=O)C(c2ccccc2)=C(CC(=O)NCc2ccc(C(=N)N)cc2)C1=O` [Example 1], the IC50 in test [1] was found to be 110 nM.
Take `N=C(N)c1ccc(CNC(=O)CC2=C(c3ccccc3)C(=O)C=C(NCCc3ccccc3)C2=O)cc1` [Example 2]: the IC50 amounted to 960 nM at human thrombin, 1300 nM in test [2] and 740 nM in test [1].
